Reference: US20250034089A1, “TETRAHYDROCARBAZOLE COMPOUND, AND PHARMACEUTICAL COMPOSITION AND USE THEREOF” (NAIN BIOTECH (HANGZHOU) CO., LTD., priority 2021, published 2025)

Columns and labels:
[1] = test system: tumor microspheres; test: Generation of tumor microspheres by tumor cells (HeLa, Caski, Hep3B, Huh7); format: cell-based, human; conditions: 1 or 10 μM, 48 hours, FIG. 5
Method: (§1) • 1) Cell sources: cervical cancer cells HeLa and Caski, liver cancer cells Hep3B and Huh7 were all purchased from the Chinese Academy of Sciences cell bank (Shanghai). • 2) Tumor microsphere culture: The specific culture method for tumor microspheres can be found in the literature (Cheng J et al. Tryptophan derivatives regulate the transfer of Oct4 in stem-like cancer cells. Nat Commun. 2015, 6:7209). Each tumor cell was cultured separately in a medium containing 2% B27, 10 ng/ml BFGF, 5 ng/ml EGF, and 10 ng/ml LIF to form CSC rich tumor microspheres. • 3) Cell dosing treatment: HeLa cell lines and Huh7 cell lines were inoculated in a 6-well plate containing the aforementioned culture medium at a density of 200 cells per well, while Hep3B cell lines and Caski cell lines were inoculated in a 6-well plate containing the aforementioned culture medium at a density of 2000 cells per well. KZT-A5 or AH057 at concentrations of 1 μM or 10 μM was added, and the morphology of tumor microspheres was observed, photographed and recorded after 48 hours of treatment.

[2] = test system: LO2 (human normal liver cells); test: In vitro proliferation inhibition (CCK-8), LO2; format: cell-based
From the text: • 1) Cell sources: HeLa (human cervical cancer cells), CaSki (human cervical cancer intestinal metastasis cells), Huh7 (human liver cancer cells), HepG2 (human liver cancer cells), Hep3B (human liver cancer cells) were purchased from the Chinese Academy of Sciences cell bank (Shanghai); LO2 (human normal liver cells) and HcerEpic (human normal uterine epithelial cells) were from ATCC. • 2) Cell culture and passage: The cell culture and passage method is the same as that described in “The inhibitory effect of compounds on the OCT4 protein in tumor stem cells (CSC)”. • 3) Cell dosing treatment: The each type of cells mentioned above was digested, counted, and inoculated in each well of the 96 well cell culture plate (#3988, Corning) at a density of 5000 cells/200 μl culture medium. They were cultured in a cell culture incubator at 37° C. and 5% CO2 for 24 hours to allow the cells to fully adherent to the wall. Then, the original culture medium was replaced with complete culture medium containing gradient diluted KZT-A5 (each concentration with 3 repeated wells) as well as DMSO (#D5879, Sigma Aldrich) solvent control, and they are cultured for additional 72 hours. • 4) Pharmacodynamic test and statistics: First, the morphology of cells treated with the above compounds was observed, photographed and recorded using an inverted phase contrast microscope (X71, Olympus). Then the original culture medium was replaced with phenol red free culture medium containing CCK-8 detection reagent (#E606335, Shanghai Shenggong) respectively, and they are cultured in the incubator for additional 2 hours. Then the OD450 nm absorbance value (OD value) was measured on a multifunctional enzyme-linked immunosorbent assay (168-1130, Bio Rad). […] Further, the IC50 of each compound was calculated in SPSS based on the inhibition rate. […]

[3] = test system: HeLa (human cervical cancer cells); test: In vitro proliferation inhibition (CCK-8), HeLa; format: cell-based
From the text: (§2) • 1) Cell sources: HeLa (human cervical cancer cells), CaSki (human cervical cancer intestinal metastasis cells), Huh7 (human liver cancer cells), HepG2 (human liver cancer cells), Hep3B (human liver cancer cells) were purchased from the Chinese Academy of Sciences cell bank (Shanghai); LO2 (human normal liver cells) and HcerEpic (human normal uterine epithelial cells) were from ATCC. • 2) Cell culture and passage: The cell culture and passage method is the same as that described in “The inhibitory effect of compounds on the OCT4 protein in tumor stem cells (CSC)”. • 3) Cell dosing treatment: The each type of cells mentioned above was digested, counted, and inoculated in each well of the 96 well cell culture plate (#3988, Corning) at a density of 5000 cells/200 μl culture medium. They were cultured in a cell culture incubator at 37° C. and 5% CO2 for 24 hours to allow the cells to fully adherent to the wall. Then, the original culture medium was replaced with complete culture medium containing gradient diluted KZT-A5 (each concentration with 3 repeated wells) as well as DMSO (#D5879, Sigma Aldrich) solvent control, and they are cultured for additional 72 hours. • 4) Pharmacodynamic test and statistics: First, the morphology of cells treated with the above compounds was observed, photographed and recorded using an inverted phase contrast microscope (X71, Olympus). Then the original culture medium was replaced with phenol red free culture medium containing CCK-8 detection reagent (#E606335, Shanghai Shenggong) respectively, and they are cultured in the incubator for additional 2 hours. Then the OD450 nm absorbance value (OD value) was measured on a multifunctional enzyme-linked immunosorbent assay (168-1130, Bio Rad). After the cells were treated with the test compound, the equations for calculating the cell survival rate or cell growth rate is: survival rate=GD value of the treated group/OD value of the control group×100%; the equations for calculating the growth inhibition rate of compounds on cell proliferation is: inhibition rate=(OD value of control group−OD value of the treated group)/OD value of control group×100%. Further, the IC50 of each compound was calculated in SPSS based on the inhibition rate.
(§3) • 1) Cell sources: Huh7 (human liver cancer cells), HepG2 (human liver cancer cells), Hep3B (human liver cancer cells), and HeLa (human cervical cancer cells) were all purchased from the Chinese Academy of Sciences cell bank (Shanghai), while LO2 (human normal liver cells) was obtained from ATCC. • 2) Cell culture and passage: The cell culture and passage method is the same as that described in “The inhibitory effect of compounds on human tumor cell lines from different tissue sources (1)”. • 3) Cell dosing treatment: The cell dosing treatment method is the same as that described in “The inhibitory effect of compounds on human tumor cell lines from different tissue sources (1). • 4) Pharmacodynamic test and statistics: The pharmacodynamic test and statistics method is the same as that described in “The inhibitory effect of compounds on human tumor cell lines from different tissue sources (1)”. The IC50 value data of the compound on each type of tumor cells is the average±standard deviation of three wells in one test.

[4] = test system: CaSki (human cervical cancer intestinal metastatic cells); test: In vitro proliferation inhibition (CCK-8), CaSki; format: cell-based; conditions: Ca-Ski, 72 hours, CCK-8, average of three wells in one test
From the text: • 1) Cell sources: HeLa (human cervical cancer cells), CaSki (human cervical cancer intestinal metastasis cells), Huh7 (human liver cancer cells), HepG2 (human liver cancer cells), Hep3B (human liver cancer cells) were purchased from the Chinese Academy of Sciences cell bank (Shanghai); LO2 (human normal liver cells) and HcerEpic (human normal uterine epithelial cells) were from ATCC. • 2) Cell culture and passage: The cell culture and passage method is the same as that described in “The inhibitory effect of compounds on the OCT4 protein in tumor stem cells (CSC)”. • 3) Cell dosing treatment: The each type of cells mentioned above was digested, counted, and inoculated in each well of the 96 well cell culture plate (#3988, Corning) at a density of 5000 cells/200 μl culture medium. […] Then, the original culture medium was replaced with complete culture medium containing gradient diluted KZT-A5 (each concentration with 3 repeated wells) as well as DMSO (#D5879, Sigma Aldrich) solvent control, and they are cultured for additional 72 hours. • 4) Pharmacodynamic test and statistics: First, the morphology of cells treated with the above compounds was observed, photographed and recorded using an inverted phase contrast microscope (X71, Olympus). […] Then the OD450 nm absorbance value (OD value) was measured on a multifunctional enzyme-linked immunosorbent assay (168-1130, Bio Rad). […]

[5] = test system: Caski cells; test: Tumor microspheres cultured in Caski cells; format: cell-based, human; conditions: 10 μM, 48 hours
Method: as §1

[6] = test system: HeLa cells; test: Tumor microspheres cultured in HeLa cells; format: cell-based, human; conditions: 10 μM, 48 hours
Method: as §1

[7] = test system: Huh7 (human liver cancer cells); test: In vitro proliferation inhibition (CCK-8), Huh7; format: cell-based
From the text: as §2, §3

- IC50 ([3]; 72 hours, CCK-8, average of three wells in one test): 0.57 µM
- IC50 ([3]; Homo sapiens, 72 h, CCK-8, average of three wells in one test): < 1 µM
- IC50 ([3]; Homo sapiens, test (2), average±standard deviation of three wells): 0.7 ± 0.01 µM
- IC50 [4]: 6.38 µM
- IC50 ([7]; Homo sapiens, Huh-7, 72 h, Huh7, 72 hours, CCK-8, average of three wells in one test): < 1 µM
- IC50 ([7]; Homo sapiens, Huh-7, Huh7, test (2), average±standard deviation of three wells): 1.42 ± 0.12 µM
- IC50 ([7]; Huh7, 72 hours, CCK-8, average of three wells in one test): 0.8 µM
Structure (SMILES): COc1cc(/C=C2\CCc3c([nH]c4ccc(C)cc34)C2=O)ccc1O [KZT-A5]
- inhibition of generation of tumor microspheres [1]: dose-dependently inhibit the generation of tumor microspheres
- IC50 ([2]; LO2, 72 hours, CCK-8, average of three wells in one test): 82.1 µM
- IC50 ([2]; LO2, test (2), average±standard deviation of three wells): 96.5 ± 13 µM
- inhibitory effect compared with AH057 ([3]; Table 3): comparable to AH057
- inhibitory effect on tumor microspheres compared with AH057 [5]: more significant than that of the control compound AH057
- inhibitory effect on tumor microspheres compared with AH057 [6]: more significant than that of the control compound AH057
- inhibitory effect on viability compared with AH057 ([7]; Huh7, FIG. 6): more significant inhibitory effect
